{"source": "paper PMC3339042", "about": "(2012)", "key": {"ubiquitin E1 (UBA1) [1]": {"target": "T1, ubiquitin E1 (UBA1) (Homo sapiens, UniProt P22314)", "T1 sequence (P22314 2-1058)": "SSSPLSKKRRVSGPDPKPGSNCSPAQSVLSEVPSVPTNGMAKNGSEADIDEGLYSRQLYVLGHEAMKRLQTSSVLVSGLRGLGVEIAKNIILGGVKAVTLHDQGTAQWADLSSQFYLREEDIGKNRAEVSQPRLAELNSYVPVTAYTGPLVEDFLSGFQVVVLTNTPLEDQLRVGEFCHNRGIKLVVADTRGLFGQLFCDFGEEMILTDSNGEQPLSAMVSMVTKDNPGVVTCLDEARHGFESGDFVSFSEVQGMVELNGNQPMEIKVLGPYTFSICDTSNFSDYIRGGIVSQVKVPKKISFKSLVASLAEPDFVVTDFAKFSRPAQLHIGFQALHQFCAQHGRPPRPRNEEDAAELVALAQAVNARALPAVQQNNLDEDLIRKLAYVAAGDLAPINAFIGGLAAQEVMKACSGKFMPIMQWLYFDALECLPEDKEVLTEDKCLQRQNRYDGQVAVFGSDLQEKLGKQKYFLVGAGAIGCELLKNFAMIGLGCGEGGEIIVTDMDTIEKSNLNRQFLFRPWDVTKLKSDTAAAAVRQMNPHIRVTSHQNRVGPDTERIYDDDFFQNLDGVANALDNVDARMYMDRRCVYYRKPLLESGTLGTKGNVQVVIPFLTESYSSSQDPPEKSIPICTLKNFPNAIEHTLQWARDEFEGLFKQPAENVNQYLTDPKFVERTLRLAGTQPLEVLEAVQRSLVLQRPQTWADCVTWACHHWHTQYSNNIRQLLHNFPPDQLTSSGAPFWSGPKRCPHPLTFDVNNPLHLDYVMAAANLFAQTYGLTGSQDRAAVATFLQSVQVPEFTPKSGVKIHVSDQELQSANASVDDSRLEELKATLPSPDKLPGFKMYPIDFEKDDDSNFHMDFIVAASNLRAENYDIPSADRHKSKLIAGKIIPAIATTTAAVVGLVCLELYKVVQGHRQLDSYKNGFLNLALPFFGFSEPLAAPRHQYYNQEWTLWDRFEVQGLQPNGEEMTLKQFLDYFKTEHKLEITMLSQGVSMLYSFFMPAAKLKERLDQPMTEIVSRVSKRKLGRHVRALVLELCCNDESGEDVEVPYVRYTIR", "experiment": "E1-ubiquitin thioester gel assay with fluorescein-ubiquitin without E2", "type": "biochemical"}, "ubiquitin E1 (UBA1) [2]": {"target": "T1, ubiquitin E1 (UBA1)", "experiment": "[…]-AMP:[α-32P]-ATP exchange TLC assay", "type": "biochemical"}}}
{"smiles": "CCCCCCCCCCNCCSSCc1ccc(Cl)cc1", "note": "[compound 1, NSC624206]", "values": [{"measurement": "IC50", "setting": "ubiquitin E1 (UBA1) [1]", "result": "~9", "unit": "µM"}]}
{"smiles": "CCOC(=O)c1ccc(N2NC(=O)C(=Cc3ccc([N+](=O)[O-])o3)C2=O)cc1", "note": "[PYR-41]", "values": [{"measurement": "IC50", "setting": "ubiquitin E1 (UBA1) [2]", "result": 6.4, "unit": "µM"}]}
